Bounds are passed on as bounds.

This test deals with U-251 glioblastoma viability, CellTiter-Glo ATP luminescence. Description: U-251 glioblastoma cell viability loss, late-stage follow-up, mechanism study for HRAS target identification, CellTiter-Glo ATP luminescence, several timepoints, dry powder (AID 720616). In general terms: Cellular ATP, detected with luciferase, serves as a proxy for viable cell number.

As usually defined, the AC50 is the concentration at which the activity in the assay is half-maximal. A low value points to activity at low concentration. In the case of `Cc1onc(C(=O)N2CCN(C(c3ccc(Cl)cc3)c3ccc(Cl)cc3)CC2)c1[N+](=O)[O-]`, the half-maximal activity concentration (AC50) was > 70000 nM (measured here: 24 h treatment) and > 70000 nM (measured here: 48 h treatment).
`COc1ccc(N(C(=O)CCl)C(C(=O)NCCc2ccccc2)c2cccs2)cc1Cl` (centres undefined): the AC50 is, setting by setting: (measured here: 8 h treatment) 734 nM; (measured here: 24 h treatment) 709 nM; (measured here: 48 h treatment) 1380 nM.
The corresponding values for `C#CCCCC(=O)NCCOCCOCCOc1ccc(N(C(=O)CCl)C(C(=O)NCCc2ccccc2)c2cccs2)cc1Cl` (centres undefined) are 7550 nM, 4090 nM and 10200 nM.
The corresponding values for `CC(C)(C)OC(=O)NCCOCCOCCOc1ccc(N(C(=O)CCl)C(C(=O)NCCc2ccccc2)c2cccs2)cc1Cl` (centres undefined) are 912 nM, 1220 nM and 2210 nM.
The matching figures for `COC(=O)c1ccc([C@@H]2c3[nH]c4ccccc4c3C[C@@H](C(=O)OC)N2C(=O)CCl)cc1`: 1100 nM, 856 nM and 1250 nM.

Source of the values: PubChem BioAssay AID720616 (Broad Institute, 2013).
